Calls of active or inactive are those of the source. The calls are words filed in the database; no cut-off is given here.
What was measured:
[1] = biological target: Mast/stem cell growth factor receptor Kit (Homo sapiens) (UniProt P10721); test: Inhibition of cKIT using ATP as substrate
[2] = biological target: Platelet-derived growth factor receptor alpha (Homo sapiens) (UniProt P16234); test: Inhibition of PDGFRalpha using ATP as substrate
[3] = biological target: Serine/threonine-protein kinase mTOR (Homo sapiens, UniProt P42345); test: Inhibition of mTOR using ATP as substrate
[4] = biological target: Phosphatidylinositol 4,5-bisphosphate 3-kinase catalytic subunit delta isoform (Homo sapiens, UniProt O00329); test: Inhibition of PI3Kdelta using ATP as substrate
[5] = biological target: Phosphatidylinositol 4-kinase beta (Homo sapiens, UniProt Q9UBF8); test: Inhibition of PI4Kbeta using ATP as substrate
[6] = biological target: Serine/threonine-protein kinase pim-1 (Homo sapiens, UniProt P11309); test: Inhibition of PIM1 using ATP as substrate
[7] = biological target: Phosphatidylinositol 4,5-bisphosphate 3-kinase catalytic subunit alpha isoform (Homo sapiens, UniProt P42336); test: Inhibition of PI3Kalpha using ATP as substrate
[8] = biological target: Phosphatidylinositol 4,5-bisphosphate 3-kinase catalytic subunit gamma isoform (Homo sapiens, UniProt P48736); test: Inhibition of PI3Kgamma using ATP as substrate
[9] = biological target: Phosphatidylinositol 3-kinase catalytic subunit type 3 (Homo sapiens, UniProt Q8NEB9); test: Inhibition of VPS34 using ATP as substrate
[10] = biological target: Proto-oncogene tyrosine-protein kinase receptor Ret (Homo sapiens, UniProt P07949); test: Inhibition of RET using ATP as substrate

Chain of Phosphatidylinositol 4,5-bisphosphate 3-kinase catalytic subunit gamma isoform (P48736 whole entry, canonical isoform): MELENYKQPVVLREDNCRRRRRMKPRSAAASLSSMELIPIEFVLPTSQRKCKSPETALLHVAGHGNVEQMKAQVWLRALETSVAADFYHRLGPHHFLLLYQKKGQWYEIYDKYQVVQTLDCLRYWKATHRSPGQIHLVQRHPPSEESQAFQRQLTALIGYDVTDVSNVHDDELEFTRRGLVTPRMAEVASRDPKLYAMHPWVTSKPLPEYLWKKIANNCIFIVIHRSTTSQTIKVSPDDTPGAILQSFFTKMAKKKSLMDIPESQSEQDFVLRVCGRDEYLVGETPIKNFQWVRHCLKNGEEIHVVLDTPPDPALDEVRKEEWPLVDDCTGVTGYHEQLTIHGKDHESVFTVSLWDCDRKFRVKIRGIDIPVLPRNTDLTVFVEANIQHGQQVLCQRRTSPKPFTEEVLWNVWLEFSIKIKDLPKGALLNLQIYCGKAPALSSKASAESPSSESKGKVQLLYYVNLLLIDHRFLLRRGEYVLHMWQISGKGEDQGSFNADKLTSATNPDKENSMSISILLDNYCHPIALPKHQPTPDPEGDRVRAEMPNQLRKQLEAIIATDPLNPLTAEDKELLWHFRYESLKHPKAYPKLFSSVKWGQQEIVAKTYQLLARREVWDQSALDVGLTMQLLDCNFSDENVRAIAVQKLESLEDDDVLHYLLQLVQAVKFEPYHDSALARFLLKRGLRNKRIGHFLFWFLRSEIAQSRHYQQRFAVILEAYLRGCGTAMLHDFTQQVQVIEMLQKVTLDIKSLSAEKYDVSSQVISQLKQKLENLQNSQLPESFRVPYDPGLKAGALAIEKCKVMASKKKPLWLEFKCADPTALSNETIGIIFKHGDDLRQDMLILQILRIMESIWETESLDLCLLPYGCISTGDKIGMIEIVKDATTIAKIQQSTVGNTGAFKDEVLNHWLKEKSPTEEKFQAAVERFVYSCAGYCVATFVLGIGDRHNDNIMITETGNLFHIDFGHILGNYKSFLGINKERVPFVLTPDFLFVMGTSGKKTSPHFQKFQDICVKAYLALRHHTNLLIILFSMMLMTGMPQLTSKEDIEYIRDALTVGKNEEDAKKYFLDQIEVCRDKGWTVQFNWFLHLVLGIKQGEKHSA
Chain of Mast/stem cell growth factor receptor Kit (Homo sapiens) (P10721 whole entry): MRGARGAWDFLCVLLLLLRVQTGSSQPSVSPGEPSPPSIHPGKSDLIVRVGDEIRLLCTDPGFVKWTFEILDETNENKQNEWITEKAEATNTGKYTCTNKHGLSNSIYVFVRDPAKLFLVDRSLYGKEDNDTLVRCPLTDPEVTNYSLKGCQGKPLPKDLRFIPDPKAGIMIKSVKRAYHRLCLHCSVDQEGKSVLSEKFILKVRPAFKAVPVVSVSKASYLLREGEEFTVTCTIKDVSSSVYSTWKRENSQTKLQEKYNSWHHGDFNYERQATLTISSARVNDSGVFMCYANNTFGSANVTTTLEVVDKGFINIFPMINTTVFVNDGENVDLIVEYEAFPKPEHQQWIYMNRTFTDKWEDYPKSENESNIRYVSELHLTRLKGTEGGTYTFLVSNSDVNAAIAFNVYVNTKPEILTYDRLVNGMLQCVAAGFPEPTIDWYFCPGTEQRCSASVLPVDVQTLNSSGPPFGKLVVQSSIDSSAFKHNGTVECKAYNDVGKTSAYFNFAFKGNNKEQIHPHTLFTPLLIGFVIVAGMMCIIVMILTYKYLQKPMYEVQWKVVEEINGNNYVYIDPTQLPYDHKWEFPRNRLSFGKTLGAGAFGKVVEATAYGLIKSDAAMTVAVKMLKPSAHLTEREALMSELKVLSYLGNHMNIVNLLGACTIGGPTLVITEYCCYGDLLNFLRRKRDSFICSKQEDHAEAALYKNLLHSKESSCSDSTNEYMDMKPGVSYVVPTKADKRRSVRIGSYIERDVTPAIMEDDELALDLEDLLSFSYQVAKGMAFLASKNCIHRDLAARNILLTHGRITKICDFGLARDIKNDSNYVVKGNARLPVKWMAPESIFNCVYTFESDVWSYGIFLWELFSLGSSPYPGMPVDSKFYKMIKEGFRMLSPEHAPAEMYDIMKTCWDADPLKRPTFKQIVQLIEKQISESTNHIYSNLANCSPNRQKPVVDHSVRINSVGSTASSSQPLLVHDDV
Chain of Platelet-derived growth factor receptor alpha (Homo sapiens) (P16234 whole entry): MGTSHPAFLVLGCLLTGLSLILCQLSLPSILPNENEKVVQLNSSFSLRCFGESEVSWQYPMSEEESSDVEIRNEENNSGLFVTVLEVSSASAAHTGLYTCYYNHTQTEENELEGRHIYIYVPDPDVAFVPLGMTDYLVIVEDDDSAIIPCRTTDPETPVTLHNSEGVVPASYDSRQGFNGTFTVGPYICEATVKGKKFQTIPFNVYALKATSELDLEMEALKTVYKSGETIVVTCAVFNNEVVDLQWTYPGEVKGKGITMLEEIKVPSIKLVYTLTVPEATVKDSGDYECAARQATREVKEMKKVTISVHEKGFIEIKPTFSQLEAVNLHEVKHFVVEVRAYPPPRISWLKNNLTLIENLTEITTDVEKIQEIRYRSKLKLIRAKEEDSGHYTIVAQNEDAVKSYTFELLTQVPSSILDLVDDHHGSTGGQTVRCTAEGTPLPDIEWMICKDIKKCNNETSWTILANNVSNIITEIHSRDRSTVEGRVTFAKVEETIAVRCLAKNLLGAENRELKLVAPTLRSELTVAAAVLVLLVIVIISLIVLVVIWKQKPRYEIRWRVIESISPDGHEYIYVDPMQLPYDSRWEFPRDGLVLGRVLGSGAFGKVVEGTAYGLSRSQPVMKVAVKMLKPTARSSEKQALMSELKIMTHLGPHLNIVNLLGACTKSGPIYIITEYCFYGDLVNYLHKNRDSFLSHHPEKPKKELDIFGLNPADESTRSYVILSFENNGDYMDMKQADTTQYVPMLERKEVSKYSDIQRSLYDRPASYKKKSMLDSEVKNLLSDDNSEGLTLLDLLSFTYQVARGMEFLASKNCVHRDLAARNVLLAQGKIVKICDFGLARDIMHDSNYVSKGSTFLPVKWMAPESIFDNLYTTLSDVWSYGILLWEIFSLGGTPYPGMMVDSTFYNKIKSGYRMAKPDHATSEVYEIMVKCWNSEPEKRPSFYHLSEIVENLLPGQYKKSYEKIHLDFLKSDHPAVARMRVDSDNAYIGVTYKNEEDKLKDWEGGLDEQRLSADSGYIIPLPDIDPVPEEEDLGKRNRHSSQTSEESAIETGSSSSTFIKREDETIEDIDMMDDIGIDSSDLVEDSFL
Chain of Phosphatidylinositol 3-kinase catalytic subunit type 3 (Q8NEB9 whole entry): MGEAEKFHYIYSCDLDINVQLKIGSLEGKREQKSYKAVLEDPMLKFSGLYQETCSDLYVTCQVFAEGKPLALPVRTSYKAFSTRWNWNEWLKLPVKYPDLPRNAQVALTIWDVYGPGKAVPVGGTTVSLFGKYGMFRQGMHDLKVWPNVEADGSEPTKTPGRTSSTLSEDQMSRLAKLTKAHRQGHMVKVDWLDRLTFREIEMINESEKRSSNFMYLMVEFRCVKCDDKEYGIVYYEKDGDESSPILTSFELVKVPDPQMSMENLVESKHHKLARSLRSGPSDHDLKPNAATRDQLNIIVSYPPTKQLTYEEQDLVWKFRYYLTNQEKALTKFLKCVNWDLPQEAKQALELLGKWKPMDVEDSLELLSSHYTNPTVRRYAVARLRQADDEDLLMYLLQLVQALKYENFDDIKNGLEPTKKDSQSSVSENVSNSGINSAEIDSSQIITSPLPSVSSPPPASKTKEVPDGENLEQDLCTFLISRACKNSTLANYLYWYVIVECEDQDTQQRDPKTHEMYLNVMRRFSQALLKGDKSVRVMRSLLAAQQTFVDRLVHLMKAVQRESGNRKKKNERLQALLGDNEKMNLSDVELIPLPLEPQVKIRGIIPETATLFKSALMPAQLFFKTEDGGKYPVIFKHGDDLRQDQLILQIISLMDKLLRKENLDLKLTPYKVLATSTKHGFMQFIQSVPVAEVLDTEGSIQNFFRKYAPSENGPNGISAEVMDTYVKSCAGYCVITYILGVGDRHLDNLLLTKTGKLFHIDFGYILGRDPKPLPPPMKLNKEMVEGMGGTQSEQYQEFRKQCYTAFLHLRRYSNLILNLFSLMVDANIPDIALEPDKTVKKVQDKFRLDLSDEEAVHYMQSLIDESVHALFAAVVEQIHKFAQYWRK
Chain of Phosphatidylinositol 4,5-bisphosphate 3-kinase catalytic subunit alpha isoform (P42336 whole entry, canonical isoform): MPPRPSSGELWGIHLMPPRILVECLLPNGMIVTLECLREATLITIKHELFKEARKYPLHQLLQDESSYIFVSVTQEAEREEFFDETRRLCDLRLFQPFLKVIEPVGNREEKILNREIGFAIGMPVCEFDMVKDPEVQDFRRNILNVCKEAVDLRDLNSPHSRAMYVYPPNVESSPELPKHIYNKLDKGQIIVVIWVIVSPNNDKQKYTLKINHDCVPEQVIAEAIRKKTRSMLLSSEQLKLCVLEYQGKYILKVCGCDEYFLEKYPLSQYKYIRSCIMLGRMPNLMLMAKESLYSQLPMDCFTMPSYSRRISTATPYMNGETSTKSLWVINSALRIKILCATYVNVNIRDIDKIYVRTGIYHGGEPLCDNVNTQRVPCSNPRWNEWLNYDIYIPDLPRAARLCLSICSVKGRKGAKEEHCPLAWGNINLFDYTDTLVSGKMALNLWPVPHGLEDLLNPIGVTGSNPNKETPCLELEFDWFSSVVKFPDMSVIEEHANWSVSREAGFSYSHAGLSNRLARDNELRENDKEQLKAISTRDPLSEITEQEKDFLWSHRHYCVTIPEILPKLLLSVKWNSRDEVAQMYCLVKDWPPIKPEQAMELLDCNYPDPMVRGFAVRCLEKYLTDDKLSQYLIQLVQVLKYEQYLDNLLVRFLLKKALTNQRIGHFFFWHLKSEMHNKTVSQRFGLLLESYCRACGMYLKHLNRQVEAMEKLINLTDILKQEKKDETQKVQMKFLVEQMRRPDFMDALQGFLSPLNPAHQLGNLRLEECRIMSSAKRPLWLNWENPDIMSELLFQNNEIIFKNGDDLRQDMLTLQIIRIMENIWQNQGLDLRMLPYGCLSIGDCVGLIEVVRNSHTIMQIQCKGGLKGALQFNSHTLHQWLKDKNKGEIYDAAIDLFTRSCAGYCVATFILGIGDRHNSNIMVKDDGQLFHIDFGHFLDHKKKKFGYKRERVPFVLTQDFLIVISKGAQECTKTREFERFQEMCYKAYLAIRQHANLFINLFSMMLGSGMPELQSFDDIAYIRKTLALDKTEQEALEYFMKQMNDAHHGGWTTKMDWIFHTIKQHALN

inhibition [1]	inhibition [2]	SMILES	IC50 [3]	IC50 [4]	IC50 [5]	IC50 [6]	IC50 [7]	IC50 [8]	IC50 [9]	IC50 [10]
inactive	inactive	CN1CCC2(CC1)NC(=O)c1c(c3ccc(Cl)c(Cl)c3n1C)C2C#N (racemic)	–	–	–	–	–	–	–	–
–	–	Cn1c2c(c3ccc(Cl)c(Cl)c31)C(C#N)C1(CCNCC1)NC2=O (racemic)	> 9.1 µM	4.7 µM	2.5 µM	0.06 µM	> 9.1 µM	3.1 µM	> 9.1 µM	7.7 µM

From ChEMBL document CHEMBL1944596, “7,8-dichloro-1-oxo-β-carbolines as a versatile scaffold for the development of potent and selective kinase inhibitors with unusual binding modes” (J Med Chem, 2012)
